Source: PMC6346587, “Glucose 6-phosphate dehydrogenase 6-phosphogluconolactonase: characterization of the Plasmodium vivax enzyme and inhibitor studies” (Malaria Journal, 2019)
Changes are numbered by the printed parent chain. Numbers in names are those of the source. Where two headings read alike, the source gives them in different places.

Tests used:
PvG6PD = PvG6PD (Plasmodium vivax, UniProt A5K3M1); experiment: PvG6PD enzyme inhibition assay (NADPH formation, absorbance 340 nm / fluorescence); type: biochemical; conditions: for IC50 on PvG6PD: ellagic acid and derivatives
Protocol: The G6PD activity of PfGluPho variants was measured spectrophotometrically as described for the wt enzyme. Kinetic characterization of PvG6PD was performed using the same assay system at an Evolution 300 spectrophotometer (Thermo Scientific, Dreieich, Germany). In brief, the initial reduction of NADP^+ to NADPH by PvG6PD was monitored by measuring the absorbance at 340 nm. The 500 µL reaction mixture contained 200 µM NADP^+ and varying concentrations of PvG6PD in an assay buffer of 100 mM Tris–HCl, pH 8.0, 10 mM MgCl2, and 0.5 mM EDTA at 25 °C. The reaction was started by adding 800 µM G6P. The KM for NADP^+ was determined by titrating NADP^+ from 2 to 400 µM at 800 µM G6P; the KM for G6P was measured accordingly by titrating G6P from 2 to 1200 µM at 200 µM NADP^+. KM values were calculated using GraphPad Prism. Since the KM for G6P was considerably higher than the value measured for PfGluPho [14], a concentration of 800 µM G6P was defined as substrate saturation for PvG6PD.
(§1) To identify potential inhibitors of PvG6PD, compounds with already known effects on PfGluPho (ellagic acid and derivatives, ML304) were tested. Additionally, several compound libraries of the Helmholtz Center for Infection Research, Brunswick, were screened against PfGluPho using the high-throughput-compatible assay systems described in Preuss et al.. […] Based on structure-activity relationship studies, a set of new potential G6PD inhibitors (Fig. 8) was then synthesized and assessed. First, the IC50 values of the compounds were determined, followed by mechanistic characterization of the mode of action. To test for selectivity of the compounds, the IC50 values of the compounds on PvG6PD, PfGluPho, and hG6PD were determined in parallel.
(§2) All measurements were performed in 96-well plates, half area (Greiner Bio-One, Frickenhausen, Germany) using a Tecan Infinite M200 plate reader (Maennedorf, Switzerland). The compounds were dissolved in 100% DMSO and afterwards diluted in assay buffer to the required concentrations. Different compound concentrations were added to a mixture of enzyme and NADP^+ in assay buffer. Concentrations of substrates differed depending on the enzyme; an overview is given in the Additional file 4. The reaction was started by adding G6P, and the increase of NADPH was monitored by measuring the absorbance at 340 nm. To increase the sensitivity of the assay, some measurements were reproduced, detecting the fluorescence of NADPH at ex340/em460. […] A negative control containing no compound was defined as 0% inhibition; a positive control lacking the substrate G6P was defined as 100% inhibition. For evaluations using GraphPad Prism and Microsoft Excel, only a linear increase in absorbance/fluorescence was considered. For the mechanistic characterization of the compounds, either NADP^+ or G6P were titrated at different compound concentrations around the IC50, while keeping the second substrate in saturation. The initial slope was plotted as Michaelis–Menten curves and Lineweaver–Burk plots using GraphPad Prism; KM values and Vmax were calculated with GraphPad Prism software.

PfGluPho [1] = molecular target: T1, PfGluPho (Plasmodium falciparum, UniProt Q8IKU0); experiment: PfGluPho G6PD activity inhibition assay; type: biochemical
T1 construct: made in house
T1 sequence (Q8IKU0 1-910): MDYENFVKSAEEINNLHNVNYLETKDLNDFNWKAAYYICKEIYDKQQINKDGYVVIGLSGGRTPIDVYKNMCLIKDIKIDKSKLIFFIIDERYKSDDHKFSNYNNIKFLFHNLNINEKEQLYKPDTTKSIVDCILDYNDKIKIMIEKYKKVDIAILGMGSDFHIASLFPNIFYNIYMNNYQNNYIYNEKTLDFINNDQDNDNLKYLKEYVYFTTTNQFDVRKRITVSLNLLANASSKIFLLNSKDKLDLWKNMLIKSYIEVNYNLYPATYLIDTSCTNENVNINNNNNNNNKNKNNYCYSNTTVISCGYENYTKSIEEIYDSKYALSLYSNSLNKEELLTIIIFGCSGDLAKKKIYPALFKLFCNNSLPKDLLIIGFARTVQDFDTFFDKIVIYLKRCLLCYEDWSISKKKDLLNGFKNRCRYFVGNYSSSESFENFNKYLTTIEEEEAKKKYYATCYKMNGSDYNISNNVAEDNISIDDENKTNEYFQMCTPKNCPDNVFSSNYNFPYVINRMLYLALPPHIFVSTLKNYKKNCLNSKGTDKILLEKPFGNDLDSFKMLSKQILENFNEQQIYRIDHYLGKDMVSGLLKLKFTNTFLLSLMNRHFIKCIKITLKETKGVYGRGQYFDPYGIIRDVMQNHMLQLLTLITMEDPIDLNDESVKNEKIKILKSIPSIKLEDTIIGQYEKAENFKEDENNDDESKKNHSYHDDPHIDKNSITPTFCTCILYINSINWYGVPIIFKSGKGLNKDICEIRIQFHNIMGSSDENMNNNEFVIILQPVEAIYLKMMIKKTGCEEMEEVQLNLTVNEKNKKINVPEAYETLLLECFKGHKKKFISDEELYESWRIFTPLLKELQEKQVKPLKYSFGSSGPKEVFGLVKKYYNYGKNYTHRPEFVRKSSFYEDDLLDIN
Protocol: as §1, §2

hG6PD [2] = molecular target: T2, hG6PD (Homo sapiens, UniProt P11413); experiment: hG6PD enzyme inhibition assay; type: biochemical; conditions: for IC50 on hG6PD relative to plasmodial enzymes (selectivity): compared with PfGluPho and PvG6PD
T2 construct: made in house
Protocol: as §1, §2

[3] = Stability of compounds in enzyme assay buffer; type: physicochemical; conditions: 100 mM Tris–HCl pH 8.0 assay buffer, DMSO stock
PfGluPho [4] = molecular target: T1, PfGluPho; conditions: ML276; read-out: IC50 against PfGluPho; cited from earlier work
hG6PD [5] = molecular target: T2, hG6PD; conditions: ML276; read-out: IC50 against hG6PD; cited from earlier work
[6] = molecular target: the molecule itself; experiment: SEC; size exclusion chromatography of purified PfGluPho mutants under reducing conditions
[7] = mean ± SD, only one enzyme batch, read-out: IC50 on hG6PD
[8] = mean ± SD, at least two independent determinations, different enzyme batches, read-out: IC50 on PfGluPho

Chain of PvG6PD (A5K3M1 entry or part of it): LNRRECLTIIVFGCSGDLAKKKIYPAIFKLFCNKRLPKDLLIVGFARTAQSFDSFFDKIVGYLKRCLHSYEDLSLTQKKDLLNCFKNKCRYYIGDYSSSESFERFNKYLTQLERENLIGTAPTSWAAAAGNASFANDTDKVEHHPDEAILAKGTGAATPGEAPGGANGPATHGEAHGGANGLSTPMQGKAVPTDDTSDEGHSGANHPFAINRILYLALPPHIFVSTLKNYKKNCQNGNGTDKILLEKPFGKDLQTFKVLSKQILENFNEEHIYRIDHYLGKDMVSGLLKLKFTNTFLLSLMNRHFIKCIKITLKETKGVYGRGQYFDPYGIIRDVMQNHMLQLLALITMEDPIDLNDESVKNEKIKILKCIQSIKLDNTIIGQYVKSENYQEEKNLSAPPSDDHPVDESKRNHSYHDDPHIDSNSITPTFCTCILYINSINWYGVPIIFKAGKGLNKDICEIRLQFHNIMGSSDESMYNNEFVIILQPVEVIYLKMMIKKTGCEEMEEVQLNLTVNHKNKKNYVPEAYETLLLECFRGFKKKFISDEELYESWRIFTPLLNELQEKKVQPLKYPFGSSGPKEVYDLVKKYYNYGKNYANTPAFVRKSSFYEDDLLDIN
T2 sequence (P11413 whole entry): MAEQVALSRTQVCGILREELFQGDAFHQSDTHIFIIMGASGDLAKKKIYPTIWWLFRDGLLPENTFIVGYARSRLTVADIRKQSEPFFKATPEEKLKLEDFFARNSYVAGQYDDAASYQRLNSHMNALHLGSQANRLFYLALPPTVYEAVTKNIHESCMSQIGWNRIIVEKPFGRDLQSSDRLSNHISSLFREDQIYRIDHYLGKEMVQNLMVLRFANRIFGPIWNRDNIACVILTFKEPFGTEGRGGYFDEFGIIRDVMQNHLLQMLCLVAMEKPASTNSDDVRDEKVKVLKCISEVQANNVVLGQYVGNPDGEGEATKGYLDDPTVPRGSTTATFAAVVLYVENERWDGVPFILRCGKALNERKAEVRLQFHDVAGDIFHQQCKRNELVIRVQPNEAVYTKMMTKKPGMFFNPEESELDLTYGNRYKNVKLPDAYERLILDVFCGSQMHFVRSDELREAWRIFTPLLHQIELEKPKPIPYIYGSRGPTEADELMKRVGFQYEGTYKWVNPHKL

`C=C[S+]([O-])c1sc(Cl)c(N2CCN(c3c(Cl)sc([S+]([O-])C=C)c3[N+](=O)[O-])CC2)c1[N+](=O)[O-]` (stereo not drawn) [21 (vz0527)] showed an IC50 (PvG6PD) of 0.2 ± 0.1 µM, an IC50 (PfGluPho [1]) of 1.7 ± 0.3 µM and an IC50 (hG6PD [2]) of 8.3 ± 2.7 µM. The “IC50 on hG6PD relative to plasmodial enzymes (selectivity)” value (hG6PD [2]) was “one to two orders of magnitude higher” and the “Stability in the assay buffer / of dissolved compound” value [3] was “only active when the powder was freshly dissolved”.

For `O=C(O)C(Cl)(C=C(Cl)Cl)[N+](=O)[O-]` (stereo not drawn) [10 (vz1204)], the IC50 (PvG6PD) was 23.5 ± 3.7 µM and the IC50 (hG6PD [2]; [7]) was over 100 µM.

For `O=C(C(=C1N(Cc2ccc(Cl)nc2)CCN1Cc1ccc(Cl)nc1)[N+](=O)[O-])C(Cl)(Cl)[N+](=O)[O-]` [18 (vz0909)], the IC50 (PvG6PD) was 9.1 ± 2.8 µM, the IC50 (PfGluPho [1]) was 23.6 ± 14.3 µM and the IC50 (hG6PD [2]) was 26 ± 1.8 µM. The “Stability in the assay buffer / of dissolved compound” value [3] was “less stable”.

For `ClC=C(n1nnc2ccccc21)n1nnc2ccccc21` [8 (vz0882)], the IC50 (PvG6PD) was 12.8 ± 7.8 µM, the IC50 (PfGluPho [1]; [8]) was 18.1 ± 10.4 µM and the “Stability in the assay buffer / of dissolved compound” value [3] was “less stable”.

For `O=c1oc2c(O)c(O)c(O)c3c(=O)oc4c(O)c(O)c(O)c1c4c23` [CEA, coruleoellagic acid], the IC50 (PvG6PD) was 0.0444 ± 0.0019 µM and the “IC50 on PvG6PD” value (PvG6PD) was “lower nanomolar range”.

Work on `O=[N+]([O-])C(C(Cl)=C(Cl)Cl)=C1N(c2ccccc2)CCN1c1ccccc1` [20 (vz0005)] yielded an IC50 (PvG6PD) of over 100 µM, an IC50 (PfGluPho [1]; [8]) of over 100 µM and an IC50 (hG6PD [2]; [7]) of over 100 µM.

Molecule `N#CC(Br)c1ncccn1` (stereo not drawn) [2 (vz1731)] has an IC50 (PvG6PD) of 2.1 ± 0.1 µM, an IC50 (PfGluPho [1]; [8]) of 11.7 ± 9.9 µM and an IC50 (hG6PD [2]; [7]) of 91.7 ± 35 µM. For the same molecule, the “Stability in the assay buffer / of dissolved compound” value [3] was “only active when the powder was freshly dissolved”.

With `N#CC(Br)c1ncccc1Cl` (stereo not drawn) [4 (vz1732)] the IC50 (PvG6PD) was 0.2 µM, the “Type of inhibition of PfGluPho against G6P and NADP+” value (PfGluPho [1]; both substrate G6P and coenzyme NADP+) was “non-competitively” and the IC50 (PfGluPho [1]; [8]) was 0.9 ± 0.2 µM. The “IC50 on hG6PD relative to plasmodial enzymes (selectivity)” value (hG6PD [2]) was “one to two orders of magnitude higher”, the IC50 (hG6PD [2]; [7]) was 34.7 ± 21 µM and the “Stability in the assay buffer / of dissolved compound” value [3] was “only active when the powder was freshly dissolved”.

For `CCN1CCC[C@@H]1CNC(=O)c1ccc2c(c1)NC(=O)/C(=C/c1ccccc1F)S2` [ML276, (R, Z)-N-((1-ethylpyrrolidin-2-yl)methyl)-2-(2-fluorobenzylidene)-3-oxo-3,4-dihydro-2H-benzo[b][1,4]thiazine-6-carboxamide], the IC50 (PfGluPho [4]) is listed as 0.89 µM and the IC50 (hG6PD [5]) is listed as over 80 µM.

With `O=c1oc2c(O)c(O)c(O)c3c(=O)oc4c(O)c(O)cc1c4c23` [FEA, flavellagic acid] the IC50 (PvG6PD) was 0.0372 ± 0.0058 µM and the “IC50 on PvG6PD” value (PvG6PD) was “lower nanomolar range”.

`O=C(/C(=C1\N(Cc2ccc(Cl)nc2)CCN1Cc1cnc(Cl)s1)[N+](=O)[O-])C(Cl)(Cl)[N+](=O)[O-]` [19 (vz0914)] showed an IC50 (PvG6PD) of 5.6 ± 0.6 µM, an IC50 (PfGluPho [1]) of 8.4 ± 8.4 µM and an IC50 (hG6PD [2]) of 29.6 ± 5 µM. The “Stability in the assay buffer / of dissolved compound” value [3] was “less stable”.

With `O=CC(Cl)=C(I)I` [13 (vz0288)] the IC50 (PvG6PD; mean ± SD, at least two independent determinations, different enzyme batches, read-out: IC50 on PvG6PD) was 23.3 ± 7.8 µM, the IC50 (PfGluPho [1]; [8]) was 29.6 ± 23.2 µM and the IC50 (hG6PD [2]; [7]) was over 100 µM.

B1: PfGluPho S315Y (enzyme)
chain: T1 sequence (Q8IKU0 1-910) with S315Y
notes: source: E. coli, purified (size exclusion chromatography under reducing conditions); produced as described previously [14]
In the case of B1, the “stoichiometry N” value [6] is reported as 4.

B2: PfGluPho L395F (enzyme)
chain: T1 sequence (Q8IKU0 1-910) with L395F
notes: as for B1
In the case of B2, the “stoichiometry N” value [6] is reported as 4.

B3: PfGluPho S900E (phosphomimetic mutant) (enzyme)
chain: T1 sequence (Q8IKU0 1-910) with S900E
notes: as for B1
In the case of B3, the “stoichiometry N” value [6] is reported as 4.

B4: PfGluPho F507L (enzyme)
chain: T1 sequence (Q8IKU0 1-910) with F507L
notes: as for B1
For B4, the “stoichiometry N” value [6] was 4.

B5: PfGluPho S899E (phosphomimetic mutant) (enzyme)
chain: T1 sequence (Q8IKU0 1-910) with S899E
notes: as for B1
For B5, the “stoichiometry N” value [6] was 4.
